From PMC9232105, “S-Adenosylmethionine–responsive cystathionine β-synthase modulates sulfur metabolism and redox balance in Mycobacterium tuberculosis” (Science Advances, 2022)

Legend:
[1] = biological target: T1, cystathionine β-synthase (MtbCbs, Rv1077) (Mycobacterium tuberculosis, UniProt P9WP51); experiment: biochemical; assay type: binding; set-up: gene cbs; full-length WT MtbCbs, C-terminal 6×His
[2] = biological target: T1, cystathionine β-synthase (MtbCbs, Rv1077); experiment: cryo-EM ([…] Å) with SAM + Ser; cystathionine formation by acid-ninhydrin and LC-MS/MS; assay type: binding; set-up: gene cbs; full-length WT MtbCbs
[3] = biological target: T1, cystathionine β-synthase (MtbCbs, Rv1077); experiment: acid-ninhydrin and LC-MS/MS cystathionine formation; lead acetate kinetics with Cys; assay type: biochemical; set-up: gene cbs; full-length WT MtbCbs
[4] = biological target: T1, cystathionine β-synthase (MtbCbs, Rv1077); assay type: biochemical; set-up: gene cbs; full-length WT MtbCbs
SEC + SEC-MALS = biological target: the molecule itself; experiment: SEC + SEC-MALS

With C[S+](CC[C@H](N)C(=O)[O-])C[C@H]1O[C@@H](n2cnc3c(N)ncnc32)[C@H](O)[C@@H]1O (some centres unmarked) [S-adenosylmethionine] the Kd [1] was about 128 µM.

For N[C@@H](CO)C(=O)O [L-serine], the “cryo-EM (4.25 Å) with SAM + Ser; cystathionine formation by acid-ninhydrin and L” value [2] was “formation of external aldimine/aminoacrylate at the active site, which indicates association of Ser with PLP”.

NC(CCS)C(=O)O [L-Hcys] was tested, and the “acid-ninhydrin and LC-MS/MS cystathionine formation; lead acetate kinetics with” value [3] was “MtbCbs produces Cysth from Ser + Hcys and Cys + Hcys”.

With N[C@@H](CS)C(=O)O [L-cysteine] the “lead acetate H2S assay with steady-state kinetics; LC-MS/MS of lanthionine” value [4] was “lead-acetate assay confirmed that MtbCbs generates H2S using Cys or Hcys + Cys but not from Hcys alone”.

B1: Mycobacterium tuberculosis cystathionine β-synthase (MtbCbs, Rv1077), wild type (enzyme)
chain: MRIAQHISELIGGTPLVRLNSVVPDGAGTVAAKVEYLNPGGSSKDRIAVKMIEAAEASGQLKPGGTIVEPTSGNTGVGLALVAQRRGYKCVFVCPDKVSEDKRNVLIAYGAEVVVCPTAVPPHDPASYYSVSDRLVRDIDGAWKPDQYANPEGPASHYVTTGPEIWADTEGKVTHFVAGIGTGGTITGAGRYLKEVSGGRVRIVGADPEGSVYSGGAGRPYLVEGVGEDFWPAAYDPSVPDEIIAVSDSDSFDMTRRLAREEAMLVGGSCGMAVVAALKVAEEAGPDALIVVLLPDGGRGYMSKIFNDAWMSSYGFLRSRLDGSTEQSTVGDVLRRKSGALPALVHTHPSETVRDAIGILREYGVSQMPVVGAEPPVMAGEVAGSVSERELLSAVFEGRAKLADAVSAHMSPPLRMIGAGELVSAAGKALRDWDALMVVEEGKPVGVITRYDLLGFLSEGAGRR
modifications: PLP bound to K44 (internal aldimine)
notes: also called WT MtbCbs; native MtbCbs
With B1 the “stoichiometry N” value (SEC + SEC-MALS) was 4.
